Source: article PMC10304880, “Novel Tryptanthrin Derivatives with Selectivity as c–Jun N–Terminal Kinase (JNK) 3 Inhibitors” (Molecules, 2023)

Columns and labels:
[1] = target: T1, JNK1 (Homo sapiens, UniProt P45983); assay: KINOMEscan JNK1 binding (Kd); settings: 12-point series, max 33 μM, duplicate
T1 construct: purchased Eurofins Pharma Discovery (KINOMEscan service)
Experimental: (§1) All compounds were evaluated for their ability to bind to JNK1-3 using the KINOMEscan platform.
(§2) Compounds were submitted for dissociation constant (Kd) determination using KINOMEscan (Eurofins Pharma Discovery, San Diego, CA, USA), as described previously. […] Primary screening at fixed concentrations of compounds was performed in duplicate. To determine dissociation constant Kd, a 12-point half-log dilution series (a maximum concentration of 33 μM) was used.

[2] = target: T2, JNK2 (Homo sapiens, UniProt P45984); assay: KINOMEscan JNK2 binding (Kd); settings: 12-point series, max 33 μM, duplicate
T2 construct: purchased Eurofins Pharma Discovery (KINOMEscan service)
T2 sequence (P45984 whole entry): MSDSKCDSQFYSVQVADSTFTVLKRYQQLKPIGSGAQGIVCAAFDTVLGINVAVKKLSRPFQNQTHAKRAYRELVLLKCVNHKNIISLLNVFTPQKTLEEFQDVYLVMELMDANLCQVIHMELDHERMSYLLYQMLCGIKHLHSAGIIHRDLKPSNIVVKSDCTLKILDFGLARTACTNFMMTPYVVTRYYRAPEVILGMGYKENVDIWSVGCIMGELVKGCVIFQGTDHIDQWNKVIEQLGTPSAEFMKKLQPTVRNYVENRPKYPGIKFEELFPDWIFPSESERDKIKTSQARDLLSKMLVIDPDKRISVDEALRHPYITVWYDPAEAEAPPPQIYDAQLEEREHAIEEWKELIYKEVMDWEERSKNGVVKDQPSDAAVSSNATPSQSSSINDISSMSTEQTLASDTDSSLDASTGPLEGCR
Experimental: as §1, §2

[3] = target: T3, JNK3 (Homo sapiens, UniProt P53779); assay: KINOMEscan JNK3 binding (Kd); settings: for Kd: KINOMEscan, 12-point series, max 33 μM, duplicate; for Selectivity Index JNK1/JNK3 / Selectivity Index JNK2/JNK3: ratio of Kd values
T3 construct: purchased Eurofins Pharma Discovery (KINOMEscan service)
T3 sequence (P53779 whole entry): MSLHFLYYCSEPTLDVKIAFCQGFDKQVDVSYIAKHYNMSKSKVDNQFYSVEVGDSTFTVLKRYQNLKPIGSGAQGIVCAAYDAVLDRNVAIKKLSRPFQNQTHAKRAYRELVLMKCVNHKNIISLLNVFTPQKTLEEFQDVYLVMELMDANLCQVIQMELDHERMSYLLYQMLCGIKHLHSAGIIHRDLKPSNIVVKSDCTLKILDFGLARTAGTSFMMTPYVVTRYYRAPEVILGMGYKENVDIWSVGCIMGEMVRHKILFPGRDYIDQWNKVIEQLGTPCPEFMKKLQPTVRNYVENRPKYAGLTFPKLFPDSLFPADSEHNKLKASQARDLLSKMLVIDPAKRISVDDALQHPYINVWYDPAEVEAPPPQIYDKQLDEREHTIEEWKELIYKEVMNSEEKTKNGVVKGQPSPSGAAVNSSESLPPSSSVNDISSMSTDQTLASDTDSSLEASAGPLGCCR
Experimental: as §1, §2

[4] = tested on: NF-κB/AP-1 transcriptional activity in THP-1Blue cells; assay: LPS-induced NF-κB/AP-1 alkaline phosphatase reporter assay in THP-1Blue cells; type: cell-based; settings: Homo sapiens, 30 min pretreatment, 250 ng/mL LPS, 24 h; read-out: AP Production in THP–1Blue IC50
Experimental: Activation of AP-1/NF-κB was measured using an alkaline phosphatase reporter gene assay in THP1-Blue cells. Human monocytic THP-1Blue cells were stably transfected with a secreted embryonic alkaline phosphatase gene that was under the control of a promoter inducible by AP-1/NF-κB.
Figure 2 Effect of compounds 4d and 4e on NF-κB/AP-1 activity and IL-6 production. Panel (A) THP-1Blue cells were pretreated with the indicated compounds or DMSO for 30 min, followed by addition of 250 ng/mL LPS or buffer for 24 h. […] Panel (B) MonoMac-6 cells were pretreated with the indicated compounds or DMSO for 30 min, followed by addition of 250 ng/mL LPS or buffer for 24 h. Production of IL-6 in the supernatants was evaluated with ELISA. The data in each panel are presented as the mean ± S.D. of triplicate samples from one experiment that is representative of three independent experiments.

[5] = CellTiter-Glo cytotoxicity in THP-1Blue cells; type: cell-based; settings: human, 24 h incubation
Experimental: (§3) Prior to evaluation of the compounds in cell-based assays, we measured their cytotoxicity in human monocytic THP-1Blue and MonoMac-6 cells during a 24 h incubation. […] Thus, these compounds were all excluded from subsequent testing in these cell lines.
(§4) Cytotoxicity was analyzed with a CellTiter-Glo Luminescent Cell Viability Assay Kit from Promega (Madison, WI, USA), according to the manufacturer’s protocol. Cells were treated with the compound under investigation and cultivated for 24 h. After treatment, the cells were allowed to equilibrate to room temperature for 30 min, substrate was added, and the luminescence measured using a Fluoroscan Ascent FL (Thermo Fisher Scientific, Waltham, MA, USA). The cell IC50 values were calculated by plotting the percentage inhibition against the logarithm of inhibitor concentration (at least five points).

[6] = tested on: IL-6 production in MonoMac-6 cells; assay: LPS-induced IL-6 production in MonoMac-6 cells (ELISA); type: cell-based, human; settings: Homo sapiens, MONO-MAC-6, 30 min pretreatment, 250 ng/mL LPS, 24 h
Experimental: All cells were cultured at 37 °C in a humidified atmosphere containing 5% CO2. Human THP-1Blue monocytic cells obtained from InvivoGen (San Diego, CA, USA) were cultured in RPMI 1640 medium (Mediatech Inc., Herndon, VA, USA) supplemented with 10% (v/v) fetal bovine serum (FBS), 4.5 g/L glucose, 100 μg/mL streptomycin, 100 U/mL penicillin, 100 μg/mL phleomycin (Zeocin), and 10 μg/mL blasticidin S. Human monocyte-macrophage MonoMac-6 cells (Deutsche Sammlung von Mikroorganismen und Zellkulturen GmbH, Braunschweig, Germany) were grown in RPMI 1640 medium supplemented with 10% (v/v) FBS, 10 μg/mL bovine insulin, 100 μg/mL streptomycin, and 100 U/mL penicillin.
Panel (A) THP-1Blue cells were pretreated with the indicated compounds or DMSO for 30 min, followed by addition of 250 ng/mL LPS or buffer for 24 h. […] Panel (B) MonoMac-6 cells were pretreated with the indicated compounds or DMSO for 30 min, followed by addition of 250 ng/mL LPS or buffer for 24 h. Production of IL-6 in the supernatants was evaluated with ELISA. The data in each panel are presented as the mean ± S.D. of triplicate samples from one experiment that is representative of three independent experiments.

[7] = CellTiter-Glo cytotoxicity in MonoMac-6 cells; type: cell-based; settings: human, 24 h incubation
Experimental: as §3, §4

T1 sequence (P45983 whole entry): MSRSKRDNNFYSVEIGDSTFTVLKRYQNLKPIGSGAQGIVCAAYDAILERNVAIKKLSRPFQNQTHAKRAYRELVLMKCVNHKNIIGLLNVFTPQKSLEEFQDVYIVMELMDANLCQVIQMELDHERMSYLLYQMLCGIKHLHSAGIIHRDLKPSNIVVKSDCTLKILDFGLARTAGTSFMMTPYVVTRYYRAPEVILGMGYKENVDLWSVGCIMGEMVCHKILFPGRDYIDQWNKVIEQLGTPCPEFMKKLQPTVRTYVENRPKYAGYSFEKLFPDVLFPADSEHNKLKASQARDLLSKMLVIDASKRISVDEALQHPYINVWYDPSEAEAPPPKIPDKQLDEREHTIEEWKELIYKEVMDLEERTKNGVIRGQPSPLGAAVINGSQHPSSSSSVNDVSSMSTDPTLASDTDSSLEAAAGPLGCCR

SMILES	Kd [1] [µM]	Kd [2] [µM]	selectivity index (JNK3 versus JNK1 and JNK2) [3]	Kd [3] [µM]	Selectivity Index JNK1/JNK3 [3]	Selectivity Index JNK2/JNK3 [3]	IC50 [4] [µM]	IC50 at 24 h [5] [µM]	IC50 [6] [µM]	IC50 at 24 h [7] [µM]	melting point
O=c1c2ccccc2nc2n1-c1ccc(Br)cc1C2=NO [Compound 4b, 8-Bromoindolo[2,1-b]quinazolin-6,12-dione Oxime]	3.2 ± 0.21	8.5 ± 3.2	> 7	0.41 ± 0.07	7.8	20.7	2.1 ± 0.7	> 50	15.5 ± 3.8	> 50	> 225 °C (dec.)
O=c1c2cc(C(F)(F)F)ccc2nc2n1-c1ccccc1C2=NO [Compound 4i, 2-Trifluoromethylindolo[2,1-b]quinazolin-6,12-dione Oxime]	> 30	> 30		11 ± 1.4	>3	>3		5.6 ± 1.2		5.7 ± 1.2	> 225 °C (dec.)
O=c1c2cc(Br)ccc2nc2n1-c1ccc([N+](=O)[O-])cc1C2=NO [Compound 4f, 2-Bromo-8-nitroindolo[2,1-b]quinazolin-6,12-dione Oxime]	> 30	> 30		> 30				3.8 ± 0.9		2.7 ± 0.6	> 225 °C (dec.)
Cc1cccc2c1C(=NO)c1nc3cccc(C)c3c(=O)n1-2 [Compound 4p, 1,7-Dimethylindolo[2,1-b]quinazolin-6,12-dione Oxime]	> 30	> 30		> 30			> 50	> 50	> 50	> 50	190 to 191 °C
O=c1c2cc([N+](=O)[O-])ccc2nc2n1-c1ccccc1C2=NO [Compound 4n, 2-Nitroindolo[2,1-b]quinazolin-6,12-dione Oxime]	> 30	> 30		8.7 ± 1	>3.9	>3.9		39.3 ± 3.1	9.6 ± 1.3	> 50	> 225 °C (dec.)
O=c1c2ccc(Br)cc2nc2n1-c1ccccc1C2=NO [Compound 4k, 3-Bromoindolo[2,1-b]quinazolin-6,12-dione Oxime]	> 30	> 30		5.7 ± 1.8	>6	>6		24.1 ± 2.7		> 50	> 225 °C (dec.)
O=C(ON=C1c2ccccc2-n2c1nc1ccccc1c2=O)c1ccc2c(c1)OCO2 [Compound 5e, 6-(((Benzo[d][1,3]dioxol-5-carbonyl)oxy)imino)indolo[2,1-b]quinazolin-12(6H)-one]	0.47 ± 0.08	1.5 ± 0.6		0.27 ± 0.01	1.7		3.5 ± 1.2	> 50		27.3 ± 1.4	206 to 208 °C
CCc1ccc2c(c1)C(=NO)c1nc3ccccc3c(=O)n1-2 [Compound 4c, 8-Ethylindolo[2,1-b]quinazolin-6,12-dione Oxime]	2.6 ± 0.4	1.3 ± 0.01		0.49 ± 0.09	5.3	2.7	0.7 ± 0.2	> 50		13.3 ± 1.3	> 225 °C (dec.)
O=c1c2ccccc2nc2n1-c1ccc([N+](=O)[O-])cc1C2=NO [Compound 4a, 8-Nitroindolo[2,1-b]quinazolin-6,12-dione Oxime]	> 30	> 30	> 7	0.86 ± 0.042	>40	>40		8.4 ± 0.9		4.1 ± 0.7	
O=c1c2ccc(Br)cc2nc2n1-c1cc(Br)ccc1C2=NO [Compound 4s, 3,9-Dibromoindolo[2,1-b]quinazolin-6,12-dione Oxime]	> 30	> 30		> 30				49.1 ± 8.3		16.9 ± 3.4	> 300 °C (dec.)
O=c1c2ccccc2nc2n1-c1ccccc1C2=NO [TRYP-Ox, tryptanthrin-6-oxime, reference compound]							3.8 ± 1.1	> 50		> 50	
O=c1c2cc(Br)ccc2nc2n1-c1ccc(Br)cc1C2=NO [Compound 4t, 2,8-Dibromoindolo[2,1-b]quinazolin-6,12-dione Oxime]	> 30	> 30		> 30				6.6 ± 0.3		9.2 ± 2.1	250 to 251 °C
COc1ccc2c(c1)-n1c(nc3cc(OC)ccc3c1=O)C2=NO [Compound 4r, 3,9-Dimethoxylindolo[2,1-b]quinazolin-6,12-dione Oxime]	4.6 ± 0.6	5.8 ± 1.6		3.2 ± 1.1	1.4	1.8		8.3 ± 1.3		4.3 ± 0.9	292 to 293 °C
O=c1c2cc(Br)ccc2nc2n1-c1ccccc1C2=NO [Compound 4j, 2-Bromoindolo[2,1-b]quinazolin-6,12-dione Oxime]	4.1 ± 0.6	7.4 ± 0.6		1.9 ± 0.4	2.2	3.9		12.5 ± 2.3		8.2 ± 1.6	> 225 °C (dec.)
